The record followed here is patent US11208381B2, “Indole derivatives and their use as protein kinase inhibitors” (RespiVert Limited, priority 2016, dated 2021).

Data set [1] can be described thus: Pharmacokinetic measurements in rats, intra-tracheal dosing. The format is in vivo. As to conditions: rat; for concentration at 0.1 h: read-out: lung concentration (nM) at time 0.1 h; for concentration at 1.5 h: read-out: lung concentration (nM) at time 1.5 h; for concentration at 6 h: read-out: lung concentration (nM) at time 6 h; for concentration at 24 h: read-out: lung concentration (nM) at time 24 h; for Kp at 0.1 h / Kp at 1.5 h / Kp at 6 h / Kp at 24 h: lung/plasma; for Kp at 0.1 h: read-out: lung/plasma conc ratio at time 0.1 h; for Kp at 1.5 h: read-out: lung/plasma conc ratio at time 1.5 h; for Kp at 6 h: read-out: lung/plasma conc ratio at time 6 h; for Kp at 24 h: read-out: lung/plasma conc ratio at time 24 h; for Lung conc i.t./i.v. Ratio at time 6 h / Lung conc i.t./i.v. Ratio at time 24 h / Lung conc i.t./i.v. Ratio at time 0.1 h / Lung conc i.t./i.v. Ratio at time 1.5 h: i.t. versus i.v.

The nature of data set [2]: Pharmacokinetic measurements in rats, intravenous dosing. The format is in vivo. The settings on record: rat; for concentration at 0.1 h: read-out: lung concentration (nM) at time 0.1 h; for concentration at 1.5 h: read-out: lung concentration (nM) at time 1.5 h; for Kp at 0.1 h / Kp at 1.5 h / Kp at 6 h / Kp at 24 h: lung/plasma; for Kp at 0.1 h: read-out: lung/plasma ratio at time 0.1 h; for Kp at 1.5 h: read-out: lung/plasma ratio at time 1.5 h; for concentration at 6 h: read-out: lung concentration (nM) at time 6 h; for concentration at 24 h: read-out: lung concentration (nM) at time 24 h; for Kp at 6 h: read-out: lung/plasma ratio at time 6 h; for Kp at 24 h: read-out: lung/plasma ratio at time 24 h.

The target in data set [3] is PDGFRβ (Homo sapiens (Human), UniProt P09619). Description: PDGFRβ enzyme inhibition (ADP-Glo assay). The format is biochemical. The settings on record: mean, n = 2 (nintedanib n = 34). A general note: ADP-Glo turns the ADP formed in a reaction into a luminescent signal.
Chain of PDGFRβ (P09619 33-1106): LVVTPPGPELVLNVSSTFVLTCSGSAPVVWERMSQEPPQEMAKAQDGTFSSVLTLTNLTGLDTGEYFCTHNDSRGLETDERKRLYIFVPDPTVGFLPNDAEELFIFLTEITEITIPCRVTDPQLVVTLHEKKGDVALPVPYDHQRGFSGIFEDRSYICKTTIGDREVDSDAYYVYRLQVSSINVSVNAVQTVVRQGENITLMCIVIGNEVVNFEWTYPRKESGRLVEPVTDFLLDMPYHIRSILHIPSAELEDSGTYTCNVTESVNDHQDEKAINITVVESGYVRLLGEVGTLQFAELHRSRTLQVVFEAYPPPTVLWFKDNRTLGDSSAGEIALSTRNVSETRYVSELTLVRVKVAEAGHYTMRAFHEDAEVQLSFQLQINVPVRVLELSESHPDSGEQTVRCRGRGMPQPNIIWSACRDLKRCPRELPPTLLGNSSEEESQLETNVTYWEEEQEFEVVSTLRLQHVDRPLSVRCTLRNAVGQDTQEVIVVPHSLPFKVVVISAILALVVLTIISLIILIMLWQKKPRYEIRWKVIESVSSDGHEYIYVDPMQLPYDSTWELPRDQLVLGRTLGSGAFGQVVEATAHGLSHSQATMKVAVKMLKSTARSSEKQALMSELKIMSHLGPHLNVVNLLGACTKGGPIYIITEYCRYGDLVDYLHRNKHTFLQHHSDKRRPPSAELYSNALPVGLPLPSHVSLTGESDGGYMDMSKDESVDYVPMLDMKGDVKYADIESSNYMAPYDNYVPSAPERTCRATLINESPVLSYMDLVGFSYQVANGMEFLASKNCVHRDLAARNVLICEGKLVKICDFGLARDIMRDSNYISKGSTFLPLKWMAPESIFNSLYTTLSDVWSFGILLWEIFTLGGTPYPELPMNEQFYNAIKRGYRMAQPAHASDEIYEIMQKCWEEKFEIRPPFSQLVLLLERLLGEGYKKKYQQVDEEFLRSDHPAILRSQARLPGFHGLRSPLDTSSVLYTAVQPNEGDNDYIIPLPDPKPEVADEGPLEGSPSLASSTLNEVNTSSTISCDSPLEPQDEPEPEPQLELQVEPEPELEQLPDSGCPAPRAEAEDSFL
Data set [4] in a line: PAMPA permeability assay. The format is in vitro ADME. The settings on record: PAMPA experimental recovery.
Setting [5] is: male, CD, lung, other: intra-tracheal.
Setting [6] is: male, CD, other: intra-tracheal.

For `COC(=O)c1cc2c(cc1C)/C(=C(/Nc1ccc(C(=O)NCC(=O)N3CCN(CCO)CC3)cc1)c1ccccc1)C(=O)N2` [Example 7, (Z)-Methyl 3-(((4-((2-(4-(2-hydroxyethyl)piperazin-1-yl)-2-oxoethyl)carbamoyl)phenyl)amino)(phenyl)methylene)-5-methyl-2-oxoindoline-6-carboxylate], in data set [1] (setting [5]), the concentration at 0.1 h is 1530 nM, the concentration at 1.5 h was determined as 886 nM, the concentration at 6 h was found to be 116 nM and the concentration at 24 h came to 27 nM. For the same molecule, in data set [1] (setting [6]), the Kp at 0.1 h is 39, the Kp at 1.5 h was greater than 265, the Kp at 6 h is greater than 35 and the Kp at 24 h was greater than 8. Besides, the “Lung conc i.t./i.v. Ratio at time 6 h” value in data set [1] (6 h) is on record as greater than 42. The “Lung conc i.t./i.v. Ratio at time 24 h” value in data set [1] (24 h) is recorded as greater than 10. Also, in data set [2] (male, CD, lung, iv), the concentration at 0.1 h worked out at 99 nM and the concentration at 1.5 h is 44 nM. Besides, in data set [2] (male, CD, iv), the Kp at 0.1 h came to 2 and the Kp at 1.5 h stood at 12. Further, the Ki – broadly, the equilibrium dissociation constant of an inhibitor or competing ligand from its target – in data set [3] is 5.76 nM.

`COC(=O)c1cc2c(cc1C)/C(=C(/Nc1ccc(S(=O)(=O)NCCN3CCN(C)CC3)cc1)c1ccccc1)C(=O)N2` [Example 1, (Z)-Methyl 5-methyl-3-(((4-(N-(2-(4-methylpiperazin-1-yl)ethyl)sulfamoyl)phenyl)amino)(phenyl)methylene)-2-oxoindoline-6-carboxylate]: the inhibition constant (Ki) in data set [3] came to 9.93 nM.

`COC(=O)c1cc2c(cc1C)/C(=C(/Nc1ccc(C(=O)NCCN3CCC(O)CC3)cc1)c1ccccc1)C(=O)N2` [Example 12, (Z)-Methyl 3-(((4-((2-(4-hydroxypiperidin-1-yl)ethyl)carbamoyl)phenyl)amino)(phenyl)methylene)-5-methyl-2-oxoindoline-6-carboxylate] gave a Ki in data set [3] of 8.75 nM.

Turning to `COC(=O)c1cc2c(cc1C)/C(=C(/Nc1ccc(C(=O)NCCN3CCNC(=O)C3)cc1)c1ccccc1)C(=O)N2` [Example 9, (Z)-Methyl 5-methyl-2-oxo-3-(((4-((2-(3-oxopiperazin-1-yl)ethyl)carbamoyl)phenyl)amino)(phenyl)methylene)indoline-6-carboxylate], the “Lung conc i.t./i.v. Ratio at time 0.1 h” value in data set [1] (0.1 h) came out at 12. Further, the “Lung conc i.t./i.v. Ratio at time 1.5 h” value in data set [1] (1.5 h) amounted to 51. For the same molecule, the “Lung conc i.t./i.v. Ratio at time 6 h” value in data set [1] (6 h) amounted to 45. The “Lung conc i.t./i.v. Ratio at time 24 h” value in data set [1] (24 h) came out at 21.

`COC(=O)c1cc2c(cc1C)/C(=C(/Nc1ccc(C(=O)NC3CCN(C)CC3)cc1)c1ccccc1)C(=O)N2` [Example 18, (Z)-Methyl-5-methyl-3-(((4-((1-methylpiperidin-4-yl)carbamoyl)phenyl)amino)(phenyl)methylene)-2-oxoindoline-6-carboxylate]: the concentration at 0.1 h stood at 6533 nM in data set [1] (i.t. dose 0.1 (nintedanib 0.42), 0.1 h) and 638 nM in data set [2] (i.v. dose 0.1 (nintedanib 0.42), 0.1 h). Further, the concentration at 1.5 h in data set [1] (i.t. dose 0.1 (nintedanib 0.42), 1.5 h) is reported as 5987 nM; in data set [2] (i.v. dose 0.1 (nintedanib 0.42), 1.5 h), 306 nM. The concentration at 6 h in data set [1] (i.t. dose 0.1 (nintedanib 0.42), 6 h) is 2351 nM; in data set [2] (i.v. dose 0.1 (nintedanib 0.42), 6 h), 201 nM. In data set [1] (i.t. dose 0.1 (nintedanib 0.42), 24 h), the concentration at 24 h was 4523 nM. The t½ – broadly, the time needed for the level to fall by half in the phase considered – in data set [2] (i.v. dose 0.1 (nintedanib 0.42)) is given as 5.1 h. The “% Recovery” value in data set [4] is 84.5%.

`COC(=O)c1cc2c(cc1C)/C(=C(/Nc1ccc(C(=O)NCC(=O)N3CCN(C)CC3)cc1)c1ccccc1)C(=O)N2` [Example 8, (Z)-Methyl 5-methyl-3-(((4-((2-(4-methylpiperazin-1-yl)-2-oxoethyl)carbamoyl)phenyl)amino)(phenyl)methylene)-2-oxoindoline-6-carboxylate] gave a Ki in data set [3] of 8.12 nM.

As for `COC(=O)c1cc2c(cc1C)/C(=C(/Nc1ccc(C(=O)NCCN3CCC(N(C)C)CC3)cc1)c1ccccc1)C(=O)N2` [Example 6, (Z)-Methyl 3-(((4-((2-(4-(dimethylamino)piperidin-1-yl)ethyl)carbamoyl)phenyl)amino)(phenyl)methylene)-5-methyl-2-oxoindoline-6-carboxylate], in data set [1] (setting [5]), the concentration at 0.1 h was 9830 nM, the concentration at 1.5 h was 7570 nM, the concentration at 6 h worked out at 7820 nM and the concentration at 24 h was determined as 6440 nM. Also, in data set [1] (setting [6]), the Kp at 0.1 h was determined as 472, the Kp at 1.5 h was greater than 4450, the Kp at 6 h was greater than 4600 and the Kp at 24 h was greater than 3790. Moreover, in data set [1] (0.1 h), the “Lung conc i.t./i.v. Ratio at time 0.1 h” value worked out at 9.8. The “Lung conc i.t./i.v. Ratio at time 1.5 h” value in data set [1] (1.5 h) stood at 8.0. Also, in data set [1] (6 h), the “Lung conc i.t./i.v. Ratio at time 6 h” value stood at 8.3. Also, in data set [1] (24 h), the “Lung conc i.t./i.v. Ratio at time 24 h” value came to 7.7. Besides, in data set [2] (male, CD, lung, iv), the concentration at 0.1 h came out at 1000 nM, the concentration at 1.5 h is 949 nM, the concentration at 6 h came out at 939 nM and the concentration at 24 h came to 837 nM. Also, in data set [2] (male, CD, iv), the Kp at 0.1 h was determined as 77, the Kp at 1.5 h was greater than 558, the Kp at 6 h was greater than 552 and the Kp at 24 h is greater than 492. In addition, the Ki in data set [3] turned out to be 10.3 nM.

Regarding `COC(=O)c1cc2c(cc1C)/C(=C(/Nc1ccc(C(=O)NCCN3CCCN(C)CC3)cc1)c1ccccc1)C(=O)N2` [Example 5, (Z)-Methyl 5-methyl-3-(((4-((2-(4-methyl-1,4-diazepan-1-yl)ethyl)carbamoyl)phenyl)amino)(phenyl)methylene)-2-oxoindoline-6-carboxylate], in data set [1] (setting [5]), the concentration at 0.1 h is 5510 nM, the concentration at 1.5 h was 4020 nM, the concentration at 6 h was determined as 1070 nM and the concentration at 24 h is 1670 nM. In data set [1] (setting [6]), the Kp at 0.1 h was 371, the Kp at 1.5 h is greater than 2280, the Kp at 6 h was greater than 606 and the Kp at 24 h is greater than 951. Also, in data set [1] (0.1 h), the “Lung conc i.t./i.v. Ratio at time 0.1 h” value turned out to be 7. The “Lung conc i.t./i.v. Ratio at time 1.5 h” value in data set [1] (1.5 h) stood at 12. Besides, in data set [1] (6 h), the “Lung conc i.t./i.v. Ratio at time 6 h” value worked out at 2. The “Lung conc i.t./i.v. Ratio at time 24 h” value in data set [1] (24 h) is reported as 7. Further, in data set [2] (male, CD, lung, iv), the concentration at 0.1 h amounted to 765 nM, the concentration at 1.5 h was 330 nM, the concentration at 6 h is 499 nM and the concentration at 24 h came out at 247 nM. Also, in data set [2] (male, CD, iv), the Kp at 0.1 h came out at 127, the Kp at 1.5 h was greater than 188, the Kp at 6 h was greater than 284 and the Kp at 24 h is greater than 140. The affinity in data set [3] corresponds to a Ki of 12.9 nM.

Turning to `COC(=O)c1cc2c(cc1C)/C(=C(/Nc1ccc(C(=O)NCC3CCN(C)CC3)cc1)c1ccccc1)C(=O)N2` [Example 3, (Z)-Methyl 5-methyl-3-(((4-(((1-methylpiperidin-4-yl)methyl)carbamoyl)phenyl)amino)(phenyl)methylene)-2-oxoindoline-6-carboxylate], the “Lung conc i.t./i.v. Ratio at time 0.1 h” value in data set [1] (0.1 h) amounted to 3. Further, in data set [1] (1.5 h), the “Lung conc i.t./i.v. Ratio at time 1.5 h” value came out at 7. Further, the “Lung conc i.t./i.v. Ratio at time 6 h” value in data set [1] (6 h) is 15. Also, the “Lung conc i.t./i.v. Ratio at time 24 h” value in data set [1] (24 h) stood at 14.
